What was measured:
Assay type in all cases: in vivo
[1] = system: Septoria nodorum; experiment: Test C: preventive spray on wheat seedlings, Septoria glume blotch, visual disease rating; details: 200 ppm test suspension, Septoria nodorum inoculated the day after spraying; for pest or weed control at 200 ppm: Parastagonospora nodorum, 264 h
Description: General protocol for preparing test suspensions for Tests A-G: the test compounds were first dissolved in acetone in an amount equal to 3% of the final volume and then suspended at the desired concentration (in ppm) in acetone and purified water (50/50 mix by volume) containing 250 ppm of the surfactant Trem® 014 (polyhydric alcohol esters). The resulting test suspensions were then used in Tests A-G. Each test was conducted in triplicate, and the results were averaged. Spraying a 200 ppm test suspension to the point of run-off on the test plants was the equivalent of a rate of 800 g/ha. Unless otherwise indicated, the rating values indicate a 200 ppm test suspension was used. (An asterisk “*” next to the rating value indicates a 40 ppm test suspension was used.) The test suspension was sprayed to the point of run-off on wheat seedlings. The following day the seedlings were inoculated with a spore suspension of Septoria nodorum (the causal agent of Septoria glume blotch) and incubated in a saturated atmosphere at 24° C. for 48 h, and then moved to a growth chamber at 20° C. for 9 days, after which time visual disease ratings were made. Results for Tests A-G are given in Table A. In the Table, a rating of 100 indicates 100% disease control and a rating of 0 indicates no disease control (relative to the controls). A hyphen (-) indicates no test results.

[2] = system: Septoria tritici; experiment: Test D: preventive spray on wheat seedlings, wheat leaf blotch, visual disease rating; details: 200 ppm test suspension, Septoria tritici inoculated the day after spraying; for pest or weed control at 200 ppm: Zymoseptoria tritici, 504 h
Description: General protocol for preparing test suspensions for Tests A-G: the test compounds were first dissolved in acetone in an amount equal to 3% of the final volume and then suspended at the desired concentration (in ppm) in acetone and purified water (50/50 mix by volume) containing 250 ppm of the surfactant Trem® 014 (polyhydric alcohol esters). The resulting test suspensions were then used in Tests A-G. Each test was conducted in triplicate, and the results were averaged. Spraying a 200 ppm test suspension to the point of run-off on the test plants was the equivalent of a rate of 800 g/ha. Unless otherwise indicated, the rating values indicate a 200 ppm test suspension was used. (An asterisk “*” next to the rating value indicates a 40 ppm test suspension was used.) The test suspension was sprayed to the point of run-off on wheat seedlings. The following day the seedlings were inoculated with a spore suspension of Septoria tritici (the causal agent of wheat leaf blotch) and incubated in saturated atmosphere at 24° C. for 48 h. and then the seedlings were moved to a growth chamber at 20° C. for 19 additional days, after which time visual disease ratings were made. Results for Tests A-G are given in Table A. In the Table, a rating of 100 indicates 100% disease control and a rating of 0 indicates no disease control (relative to the controls). A hyphen (-) indicates no test results.

[3] = system: Botrytis cinerea; experiment: Test A: preventive spray on tomato seedlings, tomato Botrytis, visual disease rating; details: 200 ppm test suspension, Botrytis cinerea inoculated the day after spraying; for pest or weed control at 200 ppm: 120 h
Description: General protocol for preparing test suspensions for Tests A-G: the test compounds were first dissolved in acetone in an amount equal to 3% of the final volume and then suspended at the desired concentration (in ppm) in acetone and purified water (50/50 mix by volume) containing 250 ppm of the surfactant Trem® 014 (polyhydric alcohol esters). The resulting test suspensions were then used in Tests A-G. Each test was conducted in triplicate, and the results were averaged. Spraying a 200 ppm test suspension to the point of run-off on the test plants was the equivalent of a rate of 800 g/ha. Unless otherwise indicated, the rating values indicate a 200 ppm test suspension was used. (An asterisk “*” next to the rating value indicates a 40 ppm test suspension was used.) The test suspension was sprayed to the point of run-off on tomato seedlings. The following day the seedlings were inoculated with a spore suspension of Botrytis cinerea (the causal agent of tomato Botrytis) and incubated in saturated atmosphere at 20° C. for 48 h, and then moved to a growth chamber at 24° C. for 3 additional days, after which time visual disease ratings were made. Results for Tests A-G are given in Table A. In the Table, a rating of 100 indicates 100% disease control and a rating of 0 indicates no disease control (relative to the controls). A hyphen (-) indicates no test results.

[4] = system: Blumeria graminis f. sp. tritici; experiment: Test G: preventive spray on wheat seedlings, wheat powdery mildew, visual disease rating;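 as to all read-outs here: rated 8 days after spore dust inoculation at 20 °C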; details: 200 ppm test suspension, Blumeria graminis f. sp. tritici inoculated the day after spraying; for pest or weed control at 200 ppm: 192 h
Description: General protocol for preparing test suspensions for Tests A-G: the test compounds were first dissolved in acetone in an amount equal to 3% of the final volume and then suspended at the desired concentration (in ppm) in acetone and purified water (50/50 mix by volume) containing 250 ppm of the surfactant Trem® 014 (polyhydric alcohol esters). The resulting test suspensions were then used in Tests A-G. Each test was conducted in triplicate, and the results were averaged. Spraying a 200 ppm test suspension to the point of run-off on the test plants was the equivalent of a rate of 800 g/ha. Unless otherwise indicated, the rating values indicate a 200 ppm test suspension was used. (An asterisk “*” next to the rating value indicates a 40 ppm test suspension was used.) The test suspension was sprayed to the point of run-off on wheat seedlings. The following day the seedlings were inoculated with a spore dust of Blumeria graminis f. sp. tritici (also known as Erysiphe graminis f. sp. tritici, the causal agent of wheat powdery mildew) and incubated in a growth chamber at 20° C. for 8 days, after which time visual disease ratings were made. Results for Tests A-G are given in Table A. In the Table, a rating of 100 indicates 100% disease control and a rating of 0 indicates no disease control (relative to the controls). A hyphen (-) indicates no test results.

[5] = system: Puccinia recondita f. sp. tritici; experiment: Test F: preventive spray on wheat seedlings, wheat leaf rust, visual disease rating; details: 200 ppm test suspension, Puccinia recondita f. sp. tritici inoculated the day after spraying; for pest or weed control at 200 ppm: 168 h
Description: General protocol for preparing test suspensions for Tests A-G: the test compounds were first dissolved in acetone in an amount equal to 3% of the final volume and then suspended at the desired concentration (in ppm) in acetone and purified water (50/50 mix by volume) containing 250 ppm of the surfactant Trem® 014 (polyhydric alcohol esters). The resulting test suspensions were then used in Tests A-G. Each test was conducted in triplicate, and the results were averaged. Spraying a 200 ppm test suspension to the point of run-off on the test plants was the equivalent of a rate of 800 g/ha. Unless otherwise indicated, the rating values indicate a 200 ppm test suspension was used. (An asterisk “*” next to the rating value indicates a 40 ppm test suspension was used.) The test suspension was sprayed to the point of run-off on wheat seedlings. The following day the seedlings were inoculated with a spore suspension of Puccinia recondita f. sp. tritici (the causal agent of wheat leaf rust) and incubated in a saturated atmosphere at 20° C. for 24 h, and then moved to a growth chamber at 20° C. for 6 days, after which time visual disease ratings were made. Results for Tests A-G are given in Table A. In the Table, a rating of 100 indicates 100% disease control and a rating of 0 indicates no disease control (relative to the controls). A hyphen (-) indicates no test results.

[6] = system: Alternaria solani; experiment: Test B: preventive spray on tomato seedlings, tomato early blight, visual disease rating; details: 200 ppm test suspension, Alternaria solani inoculated the day after spraying
Description: General protocol for preparing test suspensions for Tests A-G: the test compounds were first dissolved in acetone in an amount equal to 3% of the final volume and then suspended at the desired concentration (in ppm) in acetone and purified water (50/50 mix by volume) containing 250 ppm of the surfactant Trem® 014 (polyhydric alcohol esters). The resulting test suspensions were then used in Tests A-G. Each test was conducted in triplicate, and the results were averaged. Spraying a 200 ppm test suspension to the point of run-off on the test plants was the equivalent of a rate of 800 g/ha. Unless otherwise indicated, the rating values indicate a 200 ppm test suspension was used. (An asterisk “*” next to the rating value indicates a 40 ppm test suspension was used.) The test suspension was sprayed to the point of run-off on tomato seedlings. The following day the seedlings were inoculated with a spore suspension of Alternaria solani (the causal agent of tomato early blight) and incubated in a saturated atmosphere at 27° C. for 48 h, and then moved to a growth chamber at 20° C. for 5 days, after which time visual disease ratings were made. Results for Tests A-G are given in Table A. In the Table, a rating of 100 indicates 100% disease control and a rating of 0 indicates no disease control (relative to the controls). A hyphen (-) indicates no test results.

Structure (SMILES) | pest or weed control at 200 ppm [1] [%] | pest or weed control at 200 ppm [2] [%] | pest or weed control at 200 ppm [3] [%] | pest or weed control at 200 ppm [4] [%] | pest or weed control at 200 ppm [5] [%] | Test C rating (disease control) [1] [%] | Test D rating (disease control) [2] [%] | Test A rating (disease control) [3] [%] | Test G rating (disease control) [4] [%] | Test F rating (disease control) [5] [%] | Test B rating (disease control) [6] [%]
CNC(c1c(-c2c(F)cccc2Cl)c(C)nn1C)C(C)C (stereo not drawn) [Compound 25, 4-(2-chloro-6-fluorophenyl)-N,1,3-trimethyl-α-(1-methylethyl)-1H-pyrazole-5-methanamine] | 100 | 25 | 0 | 99 | 99 | – | – | – | – | – | –
CCCCNc1c(-c2ccc(F)cc2Br)c(C)nn1C [Compound 36] | – | – | – | – | – | 100 | 50 | 67 | 0 | 100 | –
CCC(C)C(N)c1c(-c2c(F)cccc2Cl)c(C)nn1C (stereo not drawn) [Compound 33, 4-(2-chloro-6-fluorophenyl)-1,3-dimethyl-α-(1-methylpropyl)-1H-pyrazole-5-methanamine] | 98 | 92 | 90 | 56 | 80 | – | – | – | – | – | –
Cc1nn(C)c(OC2CCCCC2)c1-c1ccc(F)cc1Cl [Compound 28, 4-(2-chloro-4-fluorophenyl)-5-(cyclohexyloxy)-1,3-dimethyl-1H-pyrazole] | 0 | 100 | 95 | 73 | 58 | – | – | – | – | – | –
CCN(CC)c1c(-c2c(F)cc(F)cc2F)c(C)nn1C [Compound 50] | – | – | – | – | – | 0 | 0 | 38 | 0 | 74 | –
COCCN(CCOC)c1c(-c2ccc(F)cc2Br)c(C)nn1C [Compound 46] | – | – | – | – | – | 86 | 0 | 0 | 13 | 68 | –
Cc1nn(C)c(NC(C)C)c1-c1c(F)cc(F)cc1F [Compound 49] | – | – | – | – | – | 98 | 0 | 40 | 0 | 98 | –
Cc1nn(C)c(NC(C)C)c1-c1ccc(F)cc1F [Compound 1] | – | – | – | – | – | 0 | 0 | 65 | 0 | 0 | 0
Cc1nn(C)c(C(N)C(C)C)c1-c1c(F)cccc1Cl (centres unmarked) [Compound 32] | – | – | – | – | – | 100 | 94 | 0 | 0 | 96 | –
COCCNc1c(-c2c(F)cc(F)cc2F)c(C)nn1C [Compound 54] | – | – | – | – | – | 97 | 92 | 0 | 0 | 95 | –
Cc1nn(C)c(OCC(C)C)c1-c1ccc(F)cc1Cl [Compound 29] | – | – | – | – | – | 100 | 63 | 0 | 0 | 99 | –
COCCOc1c(-c2ccc(F)cc2Cl)c(C)nn1C [Compound 30, 4-(2-chloro-4-fluorophenyl)-5-(2-methoxyethoxy)-1,3-dimethyl-1H-pyrazole] | 0 | 85 | 91 | 0 | 58 | – | – | – | – | – | –
Cc1nn(C)c(OCC(C)C)c1-c1c(F)cc(F)cc1F [Compound 22, 1,3-dimethyl-5-(2-methylpropoxy)-4-(2,4,6-trifluorophenyl)-1H-pyrazole] | 0 | 0 | 0 | 0 | 17 | – | – | – | – | – | –
CCN(CC)c1c(-c2ccc(F)cc2Br)c(C)nn1C [Compound 39] | – | – | – | – | – | 64 | 0 | 0 | 0 | 68 | –

Reference: patent publication US20140288074A1, “FUNGICIDAL PYRAZOLES” (E I DU PONT DE NEMOURS AND COMPANY, priority 2013, published 2014)
